# Measurements taken from PubChem BioAssay (NCI).
#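 Briefly, cells in 96-well plates were exposed to five compound concentrations for 48 h, and endpoints were estimated by linear interpolation. TGI: total growth inhibition.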
# Columns and labels:
# Assay in all cases: DTP human tumour cell line panel, 48 h
# SF-295 CNS = system: SF-295 CNS
# UACC-62 melanoma = system: UACC-62 melanoma
# A549 NSCLC = system: A549 NSCLC
# K-562 leukemia = system: K-562 leukemia
# SR leukemia = system: SR leukemia
# HCT-15 colon = system: HCT-15 colon
# CCRF-CEM leukemia = system: CCRF-CEM leukemia
# MDA-MB-231 breast = system: MDA-MB-231 breast
# CAKI-1 renal = system: CAKI-1 renal
# HCC-2998 colon = system: HCC-2998 colon
# UACC-257 melanoma = system: UACC-257 melanoma
# NCI-H460 lung = system: NCI-H460 lung
# SNB-75 CNS = system: SNB-75 CNS
# PC-3 prostate = system: PC-3 prostate
# SNB-19 CNS = system: SNB-19 CNS
# SF-268 CNS = system: SF-268 CNS
# HS 578T breast = system: HS 578T breast
# UO-31 renal = system: UO-31 renal
# NCI-H226 lung = system: NCI-H226 lung
# MALME-3M melanoma = system: MALME-3M melanoma
Compound,TGI (SF-295 CNS) [µM],TGI (UACC-62 melanoma) [µM],TGI (A549 NSCLC) [µM],TGI (K-562 leukemia) [µM],TGI (SR leukemia) [µM],TGI (HCT-15 colon) [µM],TGI (CCRF-CEM leukemia) [µM],TGI (MDA-MB-231 breast) [µM],TGI (CAKI-1 renal) [µM],TGI (HCC-2998 colon) [µM],TGI (UACC-257 melanoma) [µM],TGI (NCI-H460 lung) [µM],TGI (SNB-75 CNS) [µM],TGI (PC-3 prostate) [µM],TGI (SNB-19 CNS) [µM],TGI (SF-268 CNS) [µM],TGI (HS 578T breast) [µM],TGI (UO-31 renal) [µM],TGI (NCI-H226 lung) [µM],TGI (MALME-3M melanoma) [µM]
COC(=O)[C@]12CC[C@H]3CC[C@H]([C@H]31)[C@H](c1ccccc1)N2,32.3,29.1,37.3,53.4,38.8,38.4,95.9,30.6,41.4,26.8,29.6,31.2,58.1,38.7,47.3,41.5,49.8,31.2,31.6,–
CC[C@H](Nc1c(O)c2c(c(O)c1Cl)C(=O)C=CC2=O)C(=O)OC,> 10,> 10,> 10,> 10,7.74,> 10,> 10,9.76,> 10,–,> 10,> 10,> 10,> 10,> 10,> 10,> 10,–,> 10,> 10
Nc1nc2c(c(=O)[nH]1)C(c1ccccc1)CC(=O)N2 (stereo not given),> 100,> 100,> 100,> 100,> 100,> 100,–,> 100,–,> 100,> 100,> 100,> 100,> 100,> 100,> 100,> 100,> 100,> 100,> 100
Nc1nc(Cl)c(/C=N\O)c(NCC2(CO)CCC2)n1,> 100,–,> 100,> 100,> 100,> 100,> 100,> 100,> 100,> 100,> 100,> 100,> 100,> 100,> 100,> 100,> 100,> 100,> 100,> 100
CCCCCCCCCCCCN1[C@H]2CCC[C@H]2C(O)[C@@H]2CCC[C@@H]21 (stereo not given in full),–,> 100,> 100,> 100,> 100,> 100,> 100,> 100,> 100,> 100,> 100,> 100,> 100,> 100,> 100,> 100,> 100,–,> 100,–
COc1ccc(S(=O)(=O)NC(CCC(=O)NN)C(=O)NN)cc1 (stereo not given),> 100,> 100,> 100,> 100,> 100,> 100,> 100,> 100,> 100,–,> 100,> 100,> 100,> 100,> 100,–,> 100,> 100,–,> 100
CC1C/C(=C\c2ccc(OC(=O)C(C)(C)C)cc2)C(=O)/C(=C/c2ccc(OC(=O)C(C)(C)C)cc2)C1 (stereo not given),> 100,> 100,> 100,> 100,> 100,> 100,6.25,> 100,> 100,> 100,> 100,> 100,–,> 100,> 100,> 100,> 100,–,71,> 100
COc1cccc(/C=C2\CCCc3ccccc3C2=O)c1,30.7,25.8,> 100,48.2,31.3,26,35.3,32.5,> 100,–,33.2,34.2,> 100,38.6,26.8,23,41.4,29.7,49.3,43
CN(C)CCCNc1ccc2c(=O)n(CCN(C)C)c(=O)n3c4ccccc4c(=O)c1c23,1.69,1.56,10.5,–,2.96,1.13,> 100,0.496,0.944,0.267,2.05,1.06,7.51,1.81,3.02,11.8,15.7,2.08,2.53,3.99
C1CCCCC2(CCCCCCCCC3(CCC1)OCCO3)OCCO2,> 100,> 100,> 100,> 100,> 100,> 100,–,–,> 100,> 100,> 100,> 100,> 100,> 100,> 100,> 100,> 100,3.64,> 100,> 100
CCCCN1CN2C(=O)C(C(=O)OCC)C(=O)c3sc4nc(SC)nc1c4c32 (stereo not given),30.8,31.5,39.9,77.9,67,38,83.9,32.6,32.9,–,35.8,40.2,35.7,39.5,34.8,39.8,19.9,37.4,34,30.2
CN(C)CCCn1c(Cc2ccc(Cl)cc2)nc2cc(C(F)(F)F)ccc21,31.4,31.2,32.8,> 32.5,> 100,32.8,> 43.7,26.5,27.3,3.85,30.1,26,–,29,30.8,29.1,33.6,1,36.4,24
